Test results from ChEMBL document CHEMBL1201862, “PubChem BioAssay data set” (2004).
Calls of active or inactive are those of the source.

How the values were obtained:
[1] = target: 5-hydroxytryptamine receptor 2A (Mus musculus, UniProt P35363); type: functional, cell-based;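 also: CHO-K1 cells with tagged receptor and beta-arrestin; agonist potency measured as compound-induced activation of the receptor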
[2] = viability of HCT116 lacking mutant beta-catenin – cell-based, human colon tumor, dose response (AID 1045); type: functional;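 also: HCT116 colon tumor cells with beta catenin knocked out; cells exposed to compound for 60 hours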
[3] = target: 5-hydroxytryptamine receptor 1A (Homo sapiens, UniProt P08908); type: functional
Mu-type opioid receptor = Mu-type opioid receptor (Homo sapiens, UniProt P35372); type: functional, cell-based;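 also: U2OS cells with beta-arrestin recruitment to OPRM1 by beta-gal complementation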
[4] = viability of PTEN-deleted HCT116 cells – cell-based, HCT116 PTEN knockout, dose response (AID 1047); type: functional;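 also: HCT116 colon tumor cells with PTEN knocked out; cells exposed to compound for 60 hours before readout; potency for loss of cell viability measured by luminescence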
Prothrombin = Prothrombin (Homo sapiens, UniProt P00734); experiment: Thrombin 1536 HTS Dose Response Confirmation. [Related pubchem assays: 1046 (Thrombin 1536 HTS; hits were confirmed in this assay)]; type: functional
INS1 = experiment: INS-1E survival protection against cytokine death – cell-based, luminescence, retest, dose response (AID 449756); type: functional; details: Rattus norvegicus;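 also: cell death triggered by IL-1 beta plus TNF-alpha plus IFN-gamma mixture; protective hits raise ATP signal compared with cytokine alone wells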
[5] = non-specific 3'UTR reporter inhibition in Clone20-Shn3RL – cell-based, Renilla luciferase, cherry-picked, counter-screen for Shn3 inhibitor project, dose response (AID 624133); type: functional
[6] = target: Heat shock protein HSP 90-alpha (Homo sapiens, UniProt P07900); type: functional, organism-based
[7] = Luminescent dose response cell-based high throughput screening assay for inhibitors of the Janus kinase 2 mutant JAK2V617F. [Related pubchem assays: 1446 (Primary screen.), 1521 (Confirmation assay.), 1486 (Counter screen.)]; type: functional
[8] = target: Sphingosine 1-phosphate receptor 1 (Homo sapiens, UniProt P21453); type: functional;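 also: Tango beta-arrestin reporter U2OS cells stimulated with S1P near its EC80; inhibitor potency meaning antagonism of receptor activation by the natural agonist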
[9] = target: T1, Sphingosine 1-phosphate receptor 4 (Homo sapiens, UniProt O95977); experiment: Late stage fluorescence dose response cell-based screening assay for antagonists of the Sphingosine 1-Phosphate Receptor 4 (S1P4). [Related pubchem assays: 1524 (Confirmation screen (S1P4 antagonists).), 1510 (Primary screen (S1P4 antagonists).), 1853 (Summary AID (S1P4 antagonists).), 1692 (Dose response screen (S1P4 antagonists).)]; type: functional
T1 sequence (O95977 whole entry): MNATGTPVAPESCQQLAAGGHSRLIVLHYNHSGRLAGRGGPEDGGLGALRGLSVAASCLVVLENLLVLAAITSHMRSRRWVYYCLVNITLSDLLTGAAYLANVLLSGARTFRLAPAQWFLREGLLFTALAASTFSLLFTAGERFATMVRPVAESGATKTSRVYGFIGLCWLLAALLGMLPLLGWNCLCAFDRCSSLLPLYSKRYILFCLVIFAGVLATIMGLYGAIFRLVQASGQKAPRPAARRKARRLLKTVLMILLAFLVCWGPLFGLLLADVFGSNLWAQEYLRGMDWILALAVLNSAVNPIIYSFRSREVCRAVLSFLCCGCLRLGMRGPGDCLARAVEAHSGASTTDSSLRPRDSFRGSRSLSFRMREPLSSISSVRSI

Protein RecA = target: T2, Protein RecA (Mycobacterium tuberculosis, UniProt P9WHJ3); experiment: Fluorescence Cell-Free Homogeneous Dose Retest to Identify Inhibitors of RecA-Intein Splicing Activity. [Related pubchem assays (depositor defined):AID2097, AID2223, AID489010, AID492950]; type: functional
T2 sequence (P9WHJ3 whole entry): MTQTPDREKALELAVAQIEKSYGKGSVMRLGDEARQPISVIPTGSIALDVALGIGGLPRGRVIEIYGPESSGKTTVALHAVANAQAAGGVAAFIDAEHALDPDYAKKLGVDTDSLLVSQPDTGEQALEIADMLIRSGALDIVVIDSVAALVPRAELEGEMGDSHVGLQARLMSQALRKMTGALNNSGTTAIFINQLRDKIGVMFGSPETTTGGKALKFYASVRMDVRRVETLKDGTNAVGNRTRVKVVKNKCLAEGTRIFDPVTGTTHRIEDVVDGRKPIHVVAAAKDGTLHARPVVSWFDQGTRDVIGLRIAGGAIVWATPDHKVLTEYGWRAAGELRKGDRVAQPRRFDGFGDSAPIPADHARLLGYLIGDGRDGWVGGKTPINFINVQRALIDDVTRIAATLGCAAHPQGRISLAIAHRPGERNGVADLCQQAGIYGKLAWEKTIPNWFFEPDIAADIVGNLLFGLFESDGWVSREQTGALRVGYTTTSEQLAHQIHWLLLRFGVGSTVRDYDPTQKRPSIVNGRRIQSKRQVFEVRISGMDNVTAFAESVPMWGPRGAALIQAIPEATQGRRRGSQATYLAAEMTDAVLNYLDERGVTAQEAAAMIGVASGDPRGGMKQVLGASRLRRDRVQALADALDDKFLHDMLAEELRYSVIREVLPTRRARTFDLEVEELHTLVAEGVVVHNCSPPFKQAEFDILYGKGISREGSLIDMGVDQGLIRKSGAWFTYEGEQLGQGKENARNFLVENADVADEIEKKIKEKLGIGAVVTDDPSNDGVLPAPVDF

Fatty acid synthase [10] = target: T3, Fatty acid synthase (Homo sapiens, UniProt P49327); experiment: inhibition of human FAS-TE enzyme activity – biochemical, kinetic fluorescence intensity, dose response (AID 624326); type: functional;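 also: rate of fluorescence rise from hydrolysis of a fluorogenic O-methyl fluorescein ester substrate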
[11] = target: T1, Sphingosine 1-phosphate receptor 4; experiment: Fluorescence dose response cell-based high throughput screening assay for antagonists of the Sphingosine 1-Phosphate Receptor 4 (S1P4). [Related pubchem assays: 1524 (Confirmation in triplicates.), 1510 (Primary screen.)]; type: functional
[12] = target: T4, Replicative DNA helicase DnaB (Mycobacterium tuberculosis, UniProt P9WMR3); experiment: DnaB intein splicing inhibitors, dose response, biochemical, cell-free fluorescence (AID 449749); type: functional
T4 sequence (P9WMR3 whole entry): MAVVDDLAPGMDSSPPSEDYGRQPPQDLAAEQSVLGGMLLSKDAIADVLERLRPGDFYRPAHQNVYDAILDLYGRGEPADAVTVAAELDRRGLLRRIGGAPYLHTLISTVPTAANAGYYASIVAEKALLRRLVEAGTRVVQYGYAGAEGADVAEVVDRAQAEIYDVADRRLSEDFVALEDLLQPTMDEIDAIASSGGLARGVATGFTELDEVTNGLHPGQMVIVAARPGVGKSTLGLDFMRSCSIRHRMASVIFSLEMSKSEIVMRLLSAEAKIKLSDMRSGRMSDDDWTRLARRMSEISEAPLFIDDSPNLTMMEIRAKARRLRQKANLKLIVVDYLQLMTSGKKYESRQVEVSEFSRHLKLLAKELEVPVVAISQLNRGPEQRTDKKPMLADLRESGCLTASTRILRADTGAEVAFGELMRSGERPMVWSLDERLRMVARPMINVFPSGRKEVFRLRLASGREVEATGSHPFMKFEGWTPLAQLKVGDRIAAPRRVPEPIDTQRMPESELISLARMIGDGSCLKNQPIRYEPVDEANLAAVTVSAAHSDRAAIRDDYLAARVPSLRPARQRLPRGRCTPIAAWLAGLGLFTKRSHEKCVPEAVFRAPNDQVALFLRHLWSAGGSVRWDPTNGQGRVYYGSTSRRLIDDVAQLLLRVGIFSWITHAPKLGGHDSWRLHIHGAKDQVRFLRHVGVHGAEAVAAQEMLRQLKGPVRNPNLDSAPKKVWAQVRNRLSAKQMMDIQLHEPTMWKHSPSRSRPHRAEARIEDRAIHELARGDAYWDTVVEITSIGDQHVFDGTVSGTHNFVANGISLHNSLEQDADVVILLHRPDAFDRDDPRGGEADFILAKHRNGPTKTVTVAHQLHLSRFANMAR

[13] = loss of viability in HepG2 cells – cell-based, CellTiter-Glo, cherry-picked, cytotoxicity control for Shn3 inhibitor project, dose response (AID 624134); type: functional
Fatty acid synthase [14] = target: T3, Fatty acid synthase; experiment: inhibition of human FAS-TE enzyme activity – biochemical, endpoint fluorescence intensity, uHTS hits, dose response (AID 624327); type: functional;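 also: fluorescence from hydrolysis of an O-methyl fluorescein acyl ester substrate by the enzyme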
[15] = reduction of Shn3 3'UTR-driven luciferase in osteoblasts – cell-based, Clone20 osteoblasts, firefly luciferase, cherry-picked, dose response (AID 624132); type: functional;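 also: firefly luciferase luminescence from reporter carrying the Shn3 3'UTR in osteoblasts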
[16] = NIH3T3 cell viability loss – ATP luminescence, mouse fibroblasts, counter-screen, dose response (AID 2010); type: functional, cell-based;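 also: cells exposed to compound for about 90 hours before reading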
[17] = target: Luciferin 4-monooxygenase (Photinus pyralis, UniProt P08659); experiment: inhibition of purified Photinus pyralis luciferase – biochemical, luminescence, dose response (AID 1891)
[18] = Trypanosoma cruzi growth suppression in host cells – NIH3T3 host cells, beta-gal luminescence, confirmation (AID 2044); type: functional, cell-based;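 also: intracellular parasites grown in NIH/3T3 mouse fibroblasts as host cells; luminescent beta-galactosidase reporter signal from transgenic T. cruzi replicating inside host cells; inhibitors lower the luminescence signal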
[19] = viability loss of HPDE-C7K cells – cell-based, fluorescence, HTS, primary screen (AID 431); type: functional; details: Homo sapiens
[20] = luciferase reporter signal suppression in cells – H4 neuroglioma cells, luminescence, dose response (AID 1990); type: functional, cell-based
[21] = Luminescence Cell-Based Dose Response HTS to Identify Inhibitors of 5'UTR Stem-Loop Driven Prion Protein mRNA Translation in H4 Neuroglioblastoma Cells. [Related pubchem assays: 1827 (Project Summary), 1813 (Primary HTS)]; type: functional
[22] = alpha-synuclein stem-loop luciferase translation blockers – H4 neuroglioma cells, luminescence, confirmation (AID 1988); type: functional, cell-based
[23] = microbe, parasite or virus in culture; type: functional; details: Mycobacterium tuberculosis
[24] = HPDE-C7 pancreatic duct cell viability loss – fluorescence, HTS (AID 430); type: functional, cell-based; details: Homo sapiens
[25] = Luminescence Cell-Based Dose Confirmation HTS to Identify Inhibitors of Platelet Dense Granule Release. [Related pubchem assays: 1663 (Primary HTS), 1678 (Summary of Project)]; type: functional
[26] = Luminescence Cell-Based Dose Retest to Confirm Inhibitors of Cancer Stem Cells. [Related pubchem assays (depositor defined):AID2717, AID2721]; type: functional; details: Homo sapiens
[27] = decrease of insulin promoter-GFP reporter – imaging, high-content screening, mouse beta cells (AID 1628); type: functional; details: MIN6
[28] = MIN6 cell viability loss – mouse insulinoma, cytotoxicity control, dose response (AID 2122); type: functional;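 also: confirmatory high-throughput counterscreen run to flag cytotoxic compounds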
[29] = Luminescence-based dose response cell-based high throughput screening assay for cytotoxic compounds using the IEC-6 intestinal epithelial cell line. [Related pubchem assays: 1858 (Summary AID.), 1825 (Counterscreen.), 1907 (Confirmation screen.)]; type: functional
[30] = target: DNA repair and recombination protein RAD54-like (Homo sapiens, UniProt Q92698); experiment: RAD54 Holliday junction migration blockers – biochemical, fluorescence, cherry-picked samples, dose series, confirmation (AID 651657); type: functional
[31] = target: DNA dC->dU-editing enzyme APOBEC-3G (Homo sapiens, UniProt Q9HC16); experiment: Dose Response confirmation of small molecule APOBEC3G DNA Deaminase Inhibitors via a fluorescence-based single-stranded DNA deaminase assay. [Related pubchem assays (depositor defined):AID493012, AID493028]; type: functional
[32] = target: Induced myeloid leukemia cell differentiation protein Mcl-1 (Homo sapiens, UniProt Q07820); experiment: blockers of MCL1 binding to BIM peptide – biochemical, fluorescence polarization, BIM-BH3 peptide, 1536-well, dose response (AID 2217)
[33] = target: DNA dC->dU-editing enzyme APOBEC-3A (Homo sapiens, UniProt P31941); experiment: A3A deaminase inhibition for selectivity – biochemical, dose response (AID 504722); type: functional
Bcl-2-like protein 1 = Bcl-2-like protein 1 (Homo sapiens, UniProt Q07817); experiment: blockers of BCLXL peptide binding – biochemical, fluorescence polarization, 1536-well, selectivity assay for MCL1 inhibitor project, dose response (AID 2218)

5-hydroxytryptamine receptor 1A, sequence (P08908 whole entry): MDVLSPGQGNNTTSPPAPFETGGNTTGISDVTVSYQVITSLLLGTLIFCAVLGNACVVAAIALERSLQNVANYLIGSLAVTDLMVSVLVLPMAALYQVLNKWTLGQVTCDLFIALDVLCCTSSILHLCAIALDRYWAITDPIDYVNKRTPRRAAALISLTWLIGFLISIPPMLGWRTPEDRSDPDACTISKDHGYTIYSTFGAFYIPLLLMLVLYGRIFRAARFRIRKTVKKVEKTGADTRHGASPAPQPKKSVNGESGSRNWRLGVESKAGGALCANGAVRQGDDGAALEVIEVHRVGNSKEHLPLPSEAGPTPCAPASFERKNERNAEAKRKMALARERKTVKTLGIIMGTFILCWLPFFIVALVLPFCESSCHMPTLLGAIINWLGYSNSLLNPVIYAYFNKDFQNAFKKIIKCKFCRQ
T3 sequence (P49327 whole entry): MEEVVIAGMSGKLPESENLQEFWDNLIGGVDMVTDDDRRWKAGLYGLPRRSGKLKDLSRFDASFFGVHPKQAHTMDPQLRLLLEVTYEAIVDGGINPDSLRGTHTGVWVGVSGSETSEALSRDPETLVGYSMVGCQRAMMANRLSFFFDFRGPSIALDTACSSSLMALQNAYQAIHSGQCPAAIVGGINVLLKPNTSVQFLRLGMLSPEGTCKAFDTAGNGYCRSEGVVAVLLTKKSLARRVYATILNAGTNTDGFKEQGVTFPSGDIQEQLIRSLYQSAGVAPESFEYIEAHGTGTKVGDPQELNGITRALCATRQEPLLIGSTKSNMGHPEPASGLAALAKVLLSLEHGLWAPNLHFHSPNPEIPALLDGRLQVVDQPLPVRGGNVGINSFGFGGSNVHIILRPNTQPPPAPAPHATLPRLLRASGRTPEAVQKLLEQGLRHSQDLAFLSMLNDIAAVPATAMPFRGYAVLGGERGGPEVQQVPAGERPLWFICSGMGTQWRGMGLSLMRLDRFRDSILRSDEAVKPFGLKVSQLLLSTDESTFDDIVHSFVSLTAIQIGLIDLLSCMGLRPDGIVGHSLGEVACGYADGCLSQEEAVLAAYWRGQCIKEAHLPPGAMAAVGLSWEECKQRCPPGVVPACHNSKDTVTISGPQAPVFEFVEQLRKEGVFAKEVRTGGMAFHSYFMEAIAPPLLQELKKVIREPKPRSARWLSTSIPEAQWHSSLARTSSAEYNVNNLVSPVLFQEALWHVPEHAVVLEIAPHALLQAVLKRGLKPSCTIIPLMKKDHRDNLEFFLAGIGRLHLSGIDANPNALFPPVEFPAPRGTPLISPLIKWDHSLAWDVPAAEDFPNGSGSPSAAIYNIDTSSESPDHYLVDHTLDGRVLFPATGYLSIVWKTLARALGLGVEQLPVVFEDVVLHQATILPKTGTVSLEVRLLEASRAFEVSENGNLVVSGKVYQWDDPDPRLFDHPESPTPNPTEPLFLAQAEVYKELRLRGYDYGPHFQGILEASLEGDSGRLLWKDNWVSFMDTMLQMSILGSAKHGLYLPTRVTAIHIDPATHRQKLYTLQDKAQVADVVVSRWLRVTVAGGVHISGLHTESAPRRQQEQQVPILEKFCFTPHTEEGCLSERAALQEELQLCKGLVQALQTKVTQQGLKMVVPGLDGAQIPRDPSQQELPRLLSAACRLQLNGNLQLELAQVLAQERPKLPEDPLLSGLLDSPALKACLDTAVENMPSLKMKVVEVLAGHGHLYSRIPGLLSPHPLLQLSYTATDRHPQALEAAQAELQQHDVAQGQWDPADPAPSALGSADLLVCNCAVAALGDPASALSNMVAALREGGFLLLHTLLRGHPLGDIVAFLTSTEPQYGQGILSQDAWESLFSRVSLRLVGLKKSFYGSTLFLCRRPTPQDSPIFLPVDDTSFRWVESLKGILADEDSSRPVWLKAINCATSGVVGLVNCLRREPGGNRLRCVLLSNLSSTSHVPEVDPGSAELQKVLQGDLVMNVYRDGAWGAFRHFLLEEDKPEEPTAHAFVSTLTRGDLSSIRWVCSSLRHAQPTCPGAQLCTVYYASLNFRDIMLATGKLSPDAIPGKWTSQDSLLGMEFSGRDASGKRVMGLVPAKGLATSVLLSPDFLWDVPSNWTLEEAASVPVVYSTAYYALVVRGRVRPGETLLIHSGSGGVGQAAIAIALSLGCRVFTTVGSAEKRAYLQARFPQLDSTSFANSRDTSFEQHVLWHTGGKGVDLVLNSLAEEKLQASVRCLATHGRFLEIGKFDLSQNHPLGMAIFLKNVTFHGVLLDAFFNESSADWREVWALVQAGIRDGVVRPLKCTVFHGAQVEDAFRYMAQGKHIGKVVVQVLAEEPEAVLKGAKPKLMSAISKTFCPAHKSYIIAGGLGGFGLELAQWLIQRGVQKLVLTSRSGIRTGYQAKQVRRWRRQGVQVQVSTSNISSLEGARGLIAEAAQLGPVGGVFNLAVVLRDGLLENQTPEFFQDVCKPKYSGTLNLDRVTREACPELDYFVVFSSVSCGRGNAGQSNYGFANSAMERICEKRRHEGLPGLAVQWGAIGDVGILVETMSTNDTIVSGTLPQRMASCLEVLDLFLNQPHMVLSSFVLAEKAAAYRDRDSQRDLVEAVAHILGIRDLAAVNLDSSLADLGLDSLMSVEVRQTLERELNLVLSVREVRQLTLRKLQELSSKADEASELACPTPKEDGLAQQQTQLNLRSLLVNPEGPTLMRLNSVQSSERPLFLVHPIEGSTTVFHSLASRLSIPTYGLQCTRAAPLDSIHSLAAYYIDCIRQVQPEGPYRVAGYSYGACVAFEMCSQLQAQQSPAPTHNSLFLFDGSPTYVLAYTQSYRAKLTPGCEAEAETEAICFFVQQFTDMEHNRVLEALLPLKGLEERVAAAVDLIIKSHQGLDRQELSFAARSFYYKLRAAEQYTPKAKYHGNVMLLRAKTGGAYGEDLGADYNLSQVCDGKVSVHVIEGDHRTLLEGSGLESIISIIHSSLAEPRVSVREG
DNA dC->dU-editing enzyme APOBEC-3G, sequence (Q9HC16 whole entry): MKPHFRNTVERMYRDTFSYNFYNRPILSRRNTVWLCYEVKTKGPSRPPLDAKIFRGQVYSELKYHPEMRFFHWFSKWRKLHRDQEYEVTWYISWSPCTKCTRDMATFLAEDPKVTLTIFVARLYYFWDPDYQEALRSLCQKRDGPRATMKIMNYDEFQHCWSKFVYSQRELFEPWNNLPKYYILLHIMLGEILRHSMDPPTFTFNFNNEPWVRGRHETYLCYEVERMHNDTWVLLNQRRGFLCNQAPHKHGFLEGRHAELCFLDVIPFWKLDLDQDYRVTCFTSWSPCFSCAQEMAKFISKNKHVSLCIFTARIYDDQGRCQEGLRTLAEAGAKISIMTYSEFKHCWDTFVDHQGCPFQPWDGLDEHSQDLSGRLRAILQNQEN
5-hydroxytryptamine receptor 2A, sequence (P35363 whole entry): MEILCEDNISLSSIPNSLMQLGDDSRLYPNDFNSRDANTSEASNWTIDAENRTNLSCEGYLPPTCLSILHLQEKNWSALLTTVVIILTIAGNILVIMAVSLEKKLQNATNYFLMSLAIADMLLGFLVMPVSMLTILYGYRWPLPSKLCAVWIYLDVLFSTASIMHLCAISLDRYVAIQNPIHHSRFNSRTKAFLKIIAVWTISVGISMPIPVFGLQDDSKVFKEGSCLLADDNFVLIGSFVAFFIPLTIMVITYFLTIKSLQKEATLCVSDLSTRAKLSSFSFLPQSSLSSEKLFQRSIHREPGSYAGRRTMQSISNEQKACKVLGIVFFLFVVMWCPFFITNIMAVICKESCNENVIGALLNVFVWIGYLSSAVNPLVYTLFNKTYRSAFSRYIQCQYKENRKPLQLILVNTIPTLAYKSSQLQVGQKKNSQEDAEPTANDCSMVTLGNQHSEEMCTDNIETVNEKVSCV
Induced myeloid leukemia cell differentiation protein Mcl-1, sequence (Q07820 whole entry): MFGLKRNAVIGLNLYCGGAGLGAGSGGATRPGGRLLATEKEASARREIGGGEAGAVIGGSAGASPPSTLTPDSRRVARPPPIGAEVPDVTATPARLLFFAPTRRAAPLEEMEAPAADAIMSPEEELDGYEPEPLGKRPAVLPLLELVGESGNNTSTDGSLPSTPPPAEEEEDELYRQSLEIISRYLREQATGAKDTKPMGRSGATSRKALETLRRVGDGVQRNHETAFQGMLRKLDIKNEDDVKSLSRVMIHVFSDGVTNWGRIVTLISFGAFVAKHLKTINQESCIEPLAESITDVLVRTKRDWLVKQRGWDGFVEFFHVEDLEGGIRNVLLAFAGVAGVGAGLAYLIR
Sphingosine 1-phosphate receptor 1, sequence (P21453 whole entry): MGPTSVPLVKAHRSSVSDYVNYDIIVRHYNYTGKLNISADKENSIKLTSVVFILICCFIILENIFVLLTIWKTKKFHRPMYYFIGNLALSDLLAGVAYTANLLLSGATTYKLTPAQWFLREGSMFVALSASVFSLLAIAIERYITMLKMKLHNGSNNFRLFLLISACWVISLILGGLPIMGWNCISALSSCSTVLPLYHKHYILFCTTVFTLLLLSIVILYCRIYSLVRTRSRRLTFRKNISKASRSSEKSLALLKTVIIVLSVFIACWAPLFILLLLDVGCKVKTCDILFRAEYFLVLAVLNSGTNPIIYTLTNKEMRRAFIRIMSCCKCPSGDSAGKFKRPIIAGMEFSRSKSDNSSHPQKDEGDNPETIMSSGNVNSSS
Luciferin 4-monooxygenase, sequence (P08659 whole entry): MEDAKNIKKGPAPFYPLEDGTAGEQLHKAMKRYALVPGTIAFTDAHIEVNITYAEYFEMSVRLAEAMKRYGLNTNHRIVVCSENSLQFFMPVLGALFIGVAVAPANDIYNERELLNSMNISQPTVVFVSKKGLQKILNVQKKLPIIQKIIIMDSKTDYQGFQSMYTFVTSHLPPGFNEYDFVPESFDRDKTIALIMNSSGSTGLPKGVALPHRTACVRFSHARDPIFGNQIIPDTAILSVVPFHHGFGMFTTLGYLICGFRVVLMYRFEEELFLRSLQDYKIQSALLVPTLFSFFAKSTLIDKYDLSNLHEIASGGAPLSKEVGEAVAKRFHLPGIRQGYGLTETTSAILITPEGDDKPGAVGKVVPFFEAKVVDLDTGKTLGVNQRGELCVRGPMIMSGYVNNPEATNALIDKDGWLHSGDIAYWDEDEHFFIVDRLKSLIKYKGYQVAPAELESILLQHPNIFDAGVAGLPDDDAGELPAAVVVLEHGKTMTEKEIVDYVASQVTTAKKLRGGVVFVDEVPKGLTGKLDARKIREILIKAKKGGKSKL

CCCCc1ccc2[nH]cc(CCN)c2c1
EC50 [1]: 13.3 µM (inactive)
EC50 [2]: 12.6 µM (active)
EC50 [3]: 1.81 µM (active)
EC50 (Mu-type opioid receptor): 92.5 µM (inactive)
EC50 [4]: 10.6 µM (active)

COC(=O)c1c(C)nn(-c2ccccc2)c1-n1cccc1
IC50 (Prothrombin): > 50 µM (not active)

COc1ccc(NC(=NC(C)=O)Nc2nc(C)cc(C)n2)cc1OC
IC50 (Prothrombin): 2.95 µM (active)

Cc1ccccc1CS(=O)(=O)c1nnc([C@H](Cc2ccccc2)NC(=O)OC(C)(C)C)o1
AC50 (INS1): 8.99 µM (active)
AC50 [5]: 8.32 µM (active)
AC50 [6]: 24.1 µM (active)
IC50 [7]: 0.695 µM (active)
IC50 [8]: > 49.8 µM (not active)
IC50 [9]: 3.49 µM (not active)
EC50 (Protein RecA): 8.54 µM (active)
IC50 (Fatty acid synthase [10]): 8.22 µM (active)
IC50 [11]: 1.69 µM (active)
AC50 [12]: 3.51 µM (active)
AC50 [13]: > 70 µM (inactive)
IC50 (Fatty acid synthase [14]): 6.74 µM (active)
AC50 [15]: 1.23 µM (active)

CCCc1cc(-c2nc(N)ncc2-c2ccc3c(c2)OCCCO3)c(O)cc1OC
EC50 [16]: 21 µM (active)
EC50 [17]: > 112 µM (not active)
EC50 [18]: 0.884 µM (active)
EC50 [19]: 5.93 µM (active)
EC50 [20]: 14.7 µM (active)
EC50 [21]: > 120 µM (not active)
EC50 [22]: > 120 µM (not active)
CC50 [23]: > 40 µM (active)
EC50 [24]: 6.37 µM (active)
EC50 [25]: > 112 µM (not active)
AC50 [26]: 3.81 µM (active)

OC1=C2C(=Nc3cc4c(cc3C2c2ccc(F)cc2)OCO4)CO1 (configuration not stated)
IC50 [27]: 1.32 µM (active)
IC50 [28]: < 0.25 µM (active)
IC50 [29]: 0.112 µM (active)

c1ccc2c(c1)oc1c(Nc3ccc(CN4CCOCC4)cc3)ncnc12
EC50 [19]: 15.2 µM (active)
EC50 [24]: 12.8 µM (active)
AC50 [30]: 65.5 µM (active)

C=CCn1c(S)nnc1CSc1ccccc1[N+](=O)[O-]
IC50 [31]: 2.24 µM (active)
IC50 [32]: 29.6 µM (not active)
IC50 [33]: 38.9 µM (active)
IC50 (Bcl-2-like protein 1): > 109 µM (not active)

COc1ccc(CN2CCN(c3ccccc3F)CC2)c(OC)c1
EC50 [3]: > 50 µM (not active)
